The target of one assay is T1, AAK1 (Homo sapiens, UniProt Q2M2I8).
T1 construct: to maximize the representation of endogenous proteins; endogenous in cells
The experiment in a line: Kinobeads two-dose competition binding: AAK1.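 For all read-outs here: kinobeads competition pulldown from cell lysate, compound preincubated 45 min at 4 °C, bead-bound protein measured by label-free mass spectrometry against DMSO vehicle control.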 As to conditions: for CATDS: sheet CATDS matrix 2, Gene Name AAK1.

For assay [1], the target named is T2, ABL2 (Homo sapiens, UniProt P42684).
T2 construct: endogenous in cells
The experiment in a line: Kinobeads two-dose competition binding: ABL2. Particulars: sheet CATDS matrix 2; Gene Name ABL2.

Assay [2] has as its target T2, ABL2. Put plainly: Kinobeads two-dose competition binding: ABL2. As to conditions: sheet "Kinobeads Drugmatrix - all"; unit inferred; read-out: Kinobeads Drugmatrix - all: apparent Kd, ABL2.
For assay [3], the target named is T3, ABL1 (Homo sapiens, UniProt P00519). Put plainly: Kinobeads two-dose competition binding: ABL1. Particulars: sheet CATDS matrix 2; Gene Name ABL1.
For a further assay, the target named is T4, ACAD11 (Homo sapiens, UniProt Q709F0).
T4 construct: endogenous in cells
T4 sequence (Q709F0 1-780): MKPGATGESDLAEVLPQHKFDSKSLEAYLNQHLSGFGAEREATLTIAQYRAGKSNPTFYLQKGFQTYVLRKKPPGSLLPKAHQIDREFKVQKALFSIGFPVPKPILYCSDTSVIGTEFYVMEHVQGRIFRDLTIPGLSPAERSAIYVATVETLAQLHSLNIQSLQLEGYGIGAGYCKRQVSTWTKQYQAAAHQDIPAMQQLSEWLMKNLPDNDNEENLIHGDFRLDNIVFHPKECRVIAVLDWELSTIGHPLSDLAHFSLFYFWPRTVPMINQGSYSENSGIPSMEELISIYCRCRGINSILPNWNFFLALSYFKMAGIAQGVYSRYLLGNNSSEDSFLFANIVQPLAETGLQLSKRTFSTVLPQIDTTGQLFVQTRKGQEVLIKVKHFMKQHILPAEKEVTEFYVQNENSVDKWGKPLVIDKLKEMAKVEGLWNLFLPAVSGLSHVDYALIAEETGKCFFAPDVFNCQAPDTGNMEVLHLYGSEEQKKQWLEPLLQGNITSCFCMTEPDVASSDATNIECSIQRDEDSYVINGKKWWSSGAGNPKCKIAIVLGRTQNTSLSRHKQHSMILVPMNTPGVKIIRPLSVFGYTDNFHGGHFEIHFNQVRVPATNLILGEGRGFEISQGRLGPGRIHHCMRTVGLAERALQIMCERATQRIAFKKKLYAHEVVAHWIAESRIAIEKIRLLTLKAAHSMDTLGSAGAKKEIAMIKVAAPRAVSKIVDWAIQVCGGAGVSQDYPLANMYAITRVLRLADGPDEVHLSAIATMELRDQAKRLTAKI
Put plainly: Kinobeads two-dose competition binding: ACAD11. Particulars: sheet CATDS matrix 2; Gene Name ACAD11.

The next assay deals with T5, ACOX1 (Homo sapiens, UniProt Q15067).
T5 construct: endogenous in cells
T5 sequence (Q15067 1-660): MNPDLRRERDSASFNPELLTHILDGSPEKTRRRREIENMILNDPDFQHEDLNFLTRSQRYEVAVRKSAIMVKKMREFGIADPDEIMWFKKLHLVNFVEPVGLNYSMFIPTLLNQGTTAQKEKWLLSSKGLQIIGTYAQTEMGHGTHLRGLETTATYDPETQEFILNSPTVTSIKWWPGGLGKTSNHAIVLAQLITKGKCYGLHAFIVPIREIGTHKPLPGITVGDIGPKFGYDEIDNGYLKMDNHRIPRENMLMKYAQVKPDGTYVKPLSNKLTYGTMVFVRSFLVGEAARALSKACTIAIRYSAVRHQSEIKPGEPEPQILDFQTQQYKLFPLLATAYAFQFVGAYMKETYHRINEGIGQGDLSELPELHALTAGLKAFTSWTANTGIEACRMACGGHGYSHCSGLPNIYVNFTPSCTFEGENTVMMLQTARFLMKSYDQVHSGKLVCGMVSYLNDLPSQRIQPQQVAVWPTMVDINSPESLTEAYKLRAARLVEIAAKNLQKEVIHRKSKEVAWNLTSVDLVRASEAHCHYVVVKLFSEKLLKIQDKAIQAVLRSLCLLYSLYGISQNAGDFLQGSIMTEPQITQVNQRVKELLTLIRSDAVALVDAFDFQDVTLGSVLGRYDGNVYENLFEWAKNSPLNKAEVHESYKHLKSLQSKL
The experiment in a line: Kinobeads two-dose competition binding: ACOX1.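 Note: competition of compounds with immobilized broad-spectrum kinase inhibitor beads in cell lysate at 100 and 1,000 nM, 45 min at 4 °C, bead-bound protein quantified by label-free MS versus DMSO.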 As to conditions: sheet CATDS matrix 2; Gene Name ACOX1.

The target of assay [4] is T3, ABL1. Put plainly: Kinobeads two-dose competition binding: ABL1. Particulars: sheet "Kinobeads Drugmatrix - all"; unit inferred; read-out: Kinobeads Drugmatrix - all: apparent Kd, ABL1.
Another assay has as its target PKN3 (Homo sapiens, UniProt Q6P5Z2). The experiment in a line: NanoBRET in-cell target engagement in HEK293T cells: PKN3.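 Note: Full-length PKN3 with C-terminal NanoLuc expressed in HEK293T cells, serial inhibitor dilutions competing against Kinase Tracer K5 at 500 nM, BRET read after 2 h at 37 °C.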 It is filed as cell-based. Further details: full-length PKN3, CSNK2A1 or CSNK2A2 ORF; host or cells: HEK293T. Background: In BRET a luciferase serves as donor, and the signal depends on an acceptor being close.
Where [5] appears, read: HEK293T cells, in-cell target engagement, read-out: IC50 PKN3 NanoBRET.
Where [6] appears, read: average of replicates, read-out: Average of IC50 values NanoBRET PKN3.
Where [7] appears, read: biological replicate number 1, read-out: Rep 1 IC50 NanoBRET PKN3.
Setting [8] is: biological replicate number 2, read-out: Rep 2 IC50 NanoBRET PKN3.
[9] abbreviates: biological replicate number 3, read-out: Rep 3 IC50 NanoBRET PKN3.
The mark [10] stands for this setting: biological replicate number 4, read-out: Rep 4 IC50 NanoBRET PKN3.

Structures are written as SMILES. Where two headings read alike, the source gives them in different places.

T1 sequence (Q2M2I8 whole entry): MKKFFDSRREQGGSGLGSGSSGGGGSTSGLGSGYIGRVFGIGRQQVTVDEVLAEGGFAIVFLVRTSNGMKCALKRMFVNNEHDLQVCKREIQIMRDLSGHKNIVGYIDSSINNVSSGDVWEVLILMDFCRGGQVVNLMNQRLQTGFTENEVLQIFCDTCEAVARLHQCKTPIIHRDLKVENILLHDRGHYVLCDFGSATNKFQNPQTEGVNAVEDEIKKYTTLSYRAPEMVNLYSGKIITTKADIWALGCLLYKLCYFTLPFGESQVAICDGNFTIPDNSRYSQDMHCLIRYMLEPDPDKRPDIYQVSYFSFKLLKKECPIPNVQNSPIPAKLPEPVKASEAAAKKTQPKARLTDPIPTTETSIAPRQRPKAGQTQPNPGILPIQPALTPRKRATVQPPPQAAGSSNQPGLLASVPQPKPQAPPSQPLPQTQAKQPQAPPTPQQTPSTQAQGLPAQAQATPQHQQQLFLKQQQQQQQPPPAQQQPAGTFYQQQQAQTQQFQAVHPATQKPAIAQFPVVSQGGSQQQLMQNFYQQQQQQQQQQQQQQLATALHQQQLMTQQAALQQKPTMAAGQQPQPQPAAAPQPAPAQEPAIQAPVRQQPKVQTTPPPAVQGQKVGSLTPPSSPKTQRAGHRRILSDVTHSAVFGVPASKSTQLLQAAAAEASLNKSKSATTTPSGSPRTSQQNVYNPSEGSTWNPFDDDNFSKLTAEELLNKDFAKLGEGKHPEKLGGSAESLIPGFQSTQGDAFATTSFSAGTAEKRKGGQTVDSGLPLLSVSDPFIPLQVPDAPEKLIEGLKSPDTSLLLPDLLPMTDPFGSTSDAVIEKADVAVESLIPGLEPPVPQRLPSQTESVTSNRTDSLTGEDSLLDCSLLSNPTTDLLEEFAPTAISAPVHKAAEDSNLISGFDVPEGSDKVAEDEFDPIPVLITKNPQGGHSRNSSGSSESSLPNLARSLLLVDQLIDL
PKN3, sequence (Q6P5Z2 whole entry): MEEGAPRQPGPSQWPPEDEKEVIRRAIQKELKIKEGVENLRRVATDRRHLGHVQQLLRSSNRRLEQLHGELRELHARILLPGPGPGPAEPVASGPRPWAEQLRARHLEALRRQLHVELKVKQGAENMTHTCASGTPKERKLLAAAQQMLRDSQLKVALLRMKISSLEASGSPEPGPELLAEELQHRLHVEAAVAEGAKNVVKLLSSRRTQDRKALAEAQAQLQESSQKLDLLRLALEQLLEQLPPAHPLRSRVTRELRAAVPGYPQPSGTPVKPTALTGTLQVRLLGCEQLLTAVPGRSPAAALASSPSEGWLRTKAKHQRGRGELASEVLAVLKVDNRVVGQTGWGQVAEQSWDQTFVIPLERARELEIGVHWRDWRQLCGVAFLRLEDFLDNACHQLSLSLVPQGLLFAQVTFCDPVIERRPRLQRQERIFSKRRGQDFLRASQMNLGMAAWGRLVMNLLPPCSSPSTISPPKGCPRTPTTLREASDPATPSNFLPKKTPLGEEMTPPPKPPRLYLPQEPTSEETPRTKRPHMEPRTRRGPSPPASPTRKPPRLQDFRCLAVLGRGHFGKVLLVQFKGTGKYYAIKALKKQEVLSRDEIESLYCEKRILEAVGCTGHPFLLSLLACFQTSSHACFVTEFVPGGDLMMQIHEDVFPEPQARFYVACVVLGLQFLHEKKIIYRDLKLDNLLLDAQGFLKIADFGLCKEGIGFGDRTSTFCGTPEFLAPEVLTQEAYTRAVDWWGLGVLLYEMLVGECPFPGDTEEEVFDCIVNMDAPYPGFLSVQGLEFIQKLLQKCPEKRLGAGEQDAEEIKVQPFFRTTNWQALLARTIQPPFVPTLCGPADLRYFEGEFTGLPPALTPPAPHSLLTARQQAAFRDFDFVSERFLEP
T3 sequence (P00519 28-1130 limits assumed): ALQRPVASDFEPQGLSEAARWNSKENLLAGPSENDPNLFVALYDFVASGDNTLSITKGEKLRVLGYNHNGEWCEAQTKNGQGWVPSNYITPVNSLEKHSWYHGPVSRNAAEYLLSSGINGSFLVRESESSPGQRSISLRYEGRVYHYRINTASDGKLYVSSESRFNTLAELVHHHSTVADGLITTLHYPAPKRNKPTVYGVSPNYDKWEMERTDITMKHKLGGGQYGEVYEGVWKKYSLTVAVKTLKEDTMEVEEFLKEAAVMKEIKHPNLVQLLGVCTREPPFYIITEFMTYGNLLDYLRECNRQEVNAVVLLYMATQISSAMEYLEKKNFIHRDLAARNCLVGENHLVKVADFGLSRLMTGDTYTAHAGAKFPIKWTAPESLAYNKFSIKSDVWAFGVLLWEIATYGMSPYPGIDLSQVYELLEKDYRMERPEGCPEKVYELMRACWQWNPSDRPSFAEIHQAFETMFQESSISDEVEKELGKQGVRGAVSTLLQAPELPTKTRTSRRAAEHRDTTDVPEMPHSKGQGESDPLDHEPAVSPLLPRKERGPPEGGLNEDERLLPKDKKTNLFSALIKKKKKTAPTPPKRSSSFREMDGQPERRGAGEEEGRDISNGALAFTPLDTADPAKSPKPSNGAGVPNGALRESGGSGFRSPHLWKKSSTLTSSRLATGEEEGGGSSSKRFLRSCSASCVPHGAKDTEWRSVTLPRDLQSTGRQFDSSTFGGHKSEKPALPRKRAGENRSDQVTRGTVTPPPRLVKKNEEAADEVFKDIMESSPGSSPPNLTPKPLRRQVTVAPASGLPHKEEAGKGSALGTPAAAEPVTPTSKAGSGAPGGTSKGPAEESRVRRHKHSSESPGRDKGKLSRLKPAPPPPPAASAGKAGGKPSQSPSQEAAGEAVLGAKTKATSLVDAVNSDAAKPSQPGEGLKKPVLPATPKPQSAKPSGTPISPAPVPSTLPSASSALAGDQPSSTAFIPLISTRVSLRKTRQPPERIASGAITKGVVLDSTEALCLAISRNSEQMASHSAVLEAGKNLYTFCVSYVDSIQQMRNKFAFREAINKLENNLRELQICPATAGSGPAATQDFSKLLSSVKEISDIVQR
T2 sequence (P42684 whole entry): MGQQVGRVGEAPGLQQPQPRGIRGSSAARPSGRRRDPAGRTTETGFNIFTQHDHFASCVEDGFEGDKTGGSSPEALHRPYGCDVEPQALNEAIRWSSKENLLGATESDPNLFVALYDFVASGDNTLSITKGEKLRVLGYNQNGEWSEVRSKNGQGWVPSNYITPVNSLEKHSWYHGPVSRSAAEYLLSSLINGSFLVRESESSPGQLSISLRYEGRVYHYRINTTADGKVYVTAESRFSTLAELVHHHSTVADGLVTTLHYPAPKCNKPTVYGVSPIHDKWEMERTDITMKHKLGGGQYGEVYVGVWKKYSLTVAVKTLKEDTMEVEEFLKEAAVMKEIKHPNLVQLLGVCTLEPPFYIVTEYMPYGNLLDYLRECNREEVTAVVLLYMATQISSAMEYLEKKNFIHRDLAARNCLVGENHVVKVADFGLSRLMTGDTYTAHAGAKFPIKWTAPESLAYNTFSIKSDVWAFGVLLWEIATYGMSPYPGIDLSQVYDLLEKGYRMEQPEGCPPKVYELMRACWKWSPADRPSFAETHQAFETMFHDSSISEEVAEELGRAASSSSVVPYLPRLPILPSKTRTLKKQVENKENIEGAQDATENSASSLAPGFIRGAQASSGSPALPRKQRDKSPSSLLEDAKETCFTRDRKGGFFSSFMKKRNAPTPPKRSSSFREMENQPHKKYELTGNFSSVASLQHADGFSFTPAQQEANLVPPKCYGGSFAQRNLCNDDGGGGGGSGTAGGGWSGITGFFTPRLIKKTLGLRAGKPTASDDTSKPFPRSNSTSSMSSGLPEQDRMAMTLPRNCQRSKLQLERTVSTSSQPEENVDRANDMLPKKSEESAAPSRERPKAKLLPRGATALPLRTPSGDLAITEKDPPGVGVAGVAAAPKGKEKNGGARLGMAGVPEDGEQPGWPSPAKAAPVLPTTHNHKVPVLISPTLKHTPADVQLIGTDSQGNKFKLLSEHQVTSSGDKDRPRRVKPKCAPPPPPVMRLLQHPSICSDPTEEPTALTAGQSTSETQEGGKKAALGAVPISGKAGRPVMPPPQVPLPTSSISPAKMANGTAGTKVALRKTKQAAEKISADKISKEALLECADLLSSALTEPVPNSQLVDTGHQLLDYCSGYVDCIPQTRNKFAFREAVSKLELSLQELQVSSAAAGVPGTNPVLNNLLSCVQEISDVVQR

As for `CNC(=O)c1ccccc1Nc1nc(Nc2cccc(CS(C)(=O)=O)c2)ncc1C` [GSK1520489A], the CATDS came out at 0 at AAK1; 0.01375 at ABL2 [1]; 0.01362 on ABL1 [3]; 0 at ACAD11; 0 at ACOX1. In addition, the potency estimated from few doses on ABL2 [2] is 389 nM; on ABL1 [4], 401 nM.
As for `CN1CCc2ccc(Nc3nccc(-c4c(-c5cccc(NC(=O)c6c(F)cccc6F)c5)nc5ccccn45)n3)cc2C1` [GSK1010829B], the CATDS at AAK1 is reported as 0; at ABL2 [1] it was 0.05238; at ABL1 [3], 0; on ACAD11, 0; at ACOX1, 0. In addition, the potency estimated from few doses on ABL2 [2] was 515 nM; at ABL1 [4] it was over 1000 nM.
With `CC(C)c1nc(-c2cccc(NS(=O)(=O)c3c(F)cccc3F)c2)c(-c2ccnc(Nc3ccc(N4CCOCC4)nc3)n2)s1` [GSK1723980B], the CATDS on AAK1 worked out at 0; at ABL2 [1], 0.05939; at ABL1 [3], 0.0244; at ACAD11, 0; on ACOX1, 0. The results for the potency estimated from few doses at ABL2 [2] and at ABL1 [4] were 61.3 nM and 301 nM, respectively.
As to `COc1cc2ncn(-c3cc(OCCCc4ccccc4)c(C(N)=O)s3)c2cc1OC` [GSK205189A], the CATDS amounted to 0 at AAK1; 0.03238 on ABL2 [1]; 0 on ABL1 [3]; 0 at ACAD11; 0 on ACOX1. For the same compound, the potency estimated from few doses on ABL2 [2] is 956 nM.
As for `CCn1c(-c2nonc2N)nc2c(C#CC(C)(C)O)nc(CN3CCCC3)cc21` [GSK1000163A], the CATDS at AAK1, on ABL2 [1], at ABL1 [3], at ACAD11 and at ACOX1 was 0 each time. Besides, the IC50 on PKN3 (setting [5]) came out at 11000 nM; on PKN3 (setting [6]), 6970 nM; at PKN3 (setting [7]) it was 11100 nM; on PKN3 (setting [8]) it was 9200 nM; on PKN3 (setting [9]), 6130 nM; on PKN3 (setting [10]), 1430 nM.
As to `Cc1cccc2c(-c3ccncn3)c(-c3ccc(F)cc3)nn12` [GW515532X], the half-inhibitory concentration (IC50) at PKN3 (setting [6]) was determined as 26700 nM; on PKN3 (setting [8]) it was 922 nM; at PKN3 (setting [10]), 257 nM.
For the compound `CCn1c(-c2nonc2N)nc2c(C#CC(C)(C)O)nc(OC[C@@H](N)c3ccccc3)cc21` [GSK938890A], the IC50 on PKN3 (setting [6]) was found to be 97.8 nM; on PKN3 (setting [7]), 310 nM; at PKN3 (setting [8]), 31.2 nM; at PKN3 (setting [9]) it was 28.1 nM; at PKN3 (setting [10]), 22.3 nM.
On to `Fc1ccc(-c2c(-c3ccncc3)[nH]c3cccnc23)cc1` [RO1153853-000], for which the IC50 came out at 8000 nM at PKN3 (setting [5]); 2360 nM on PKN3 (setting [6]); 8030 nM at PKN3 (setting [7]); 951 nM at PKN3 (setting [8]); 164 nM on PKN3 (setting [9]); 295 nM on PKN3 (setting [10]).
With `CCn1c(-c2nonc2N)nc2c(C#CCN)ncc(OCCCN)c21` [GSK561866B], the IC50 is 7970 nM on PKN3 (setting [6]); 12900 nM at PKN3 (setting [7]); 11200 nM at PKN3 (setting [8]); 4910 nM at PKN3 (setting [9]); 2820 nM at PKN3 (setting [10]).
On to `NC[C@@](O)(c1ccc(Cl)cc1)c1ccc(-c2cn[nH]c2)cc1` [AT-13148, reference compound], for which the CATDS at AAK1, at ABL2 [1], on ABL1 [3], at ACAD11 and at ACOX1 was 0 in each case. Also, on PKN3 (setting [5]), the IC50 was found to be 2060 nM.
With `Cc1cccc(-c2nc(Nc3ccncc3)c3sccc3n2)n1` [GW869641X], the IC50 came to 4100 nM on PKN3 (setting [5]); 1580 nM at PKN3 (setting [6]); 4190 nM on PKN3 (setting [7]); 472 nM on PKN3 (setting [8]); 87.1 nM on PKN3 (setting [10]).
As to `ON=C1CCc2cc(-c3nc(C4CCNCC4)[nH]c3-c3ccncc3)ccc21` [SB-614067-R], the IC50 at PKN3 (setting [6]) is 22900 nM; at PKN3 (setting [7]) it was 19100 nM; on PKN3 (setting [8]), 20600 nM; on PKN3 (setting [9]) it was 50100 nM; at PKN3 (setting [10]), 1840 nM.
Take `CC(=O)N1CCN(c2ccc(Nc3nccc(-c4sc(C(C)C)nc4-c4cccc(NS(=O)(=O)c5cccc(Cl)c5)c4)n3)cn2)CC1` [GSK1660437A]: the CATDS on AAK1 came out at 0; on ABL2 [1], 0.07869; at ABL1 [3], 0; at ACAD11, 0; on ACOX1, 0. Further, the potency estimated from few doses on ABL2 [2] is 351 nM.
As for `CCn1c(-c2nonc2N)nc2c(-c3ccccc3)ncc(OCCCN)c21` [GSK260205A], the IC50 is 74 nM on PKN3 (setting [5]); 22.3 nM at PKN3 (setting [6]); 73.6 nM on PKN3 (setting [7]); 6.19 nM at PKN3 (setting [8]); 6.22 nM on PKN3 (setting [9]); 3.37 nM on PKN3 (setting [10]).
Turning to `CCOc1nccc2c1nc(-c1nonc1N)n2CC` [SB-737198], the IC50 on PKN3 (setting [6]), on PKN3 (setting [7]), on PKN3 (setting [8]), at PKN3 (setting [9]) and at PKN3 (setting [10]) was over 50000 nM each time.
`CNc1ncc2cc(-c3cc(NC(=O)NCCC(C)(C)C)c(F)cc3C)c(C)nc2n1` [LY3009120, reference compound]: the IC50 is 513 nM on PKN3 (setting [6]); 538 nM on PKN3 (setting [7]); 1230 nM at PKN3 (setting [8]); 111 nM on PKN3 (setting [9]); 173 nM at PKN3 (setting [10]).
On to `COc1cc2nccc(Nc3ccc(Oc4ccccc4)cc3)c2cc1OC` [GI261656A], for which the CATDS at AAK1 worked out at 0; on ABL2 [1], 0; at ABL1 [3], 0.04923; on ACAD11 it was 0; at ACOX1 it was 0. On ABL1 [4], the potency estimated from few doses is 661 nM.
Take `COc1cccc2c(-c3ccncc3)c(-c3ccc(F)cc3)nn12` [GW468513X]: the IC50 came out at 910 nM at PKN3 (setting [6]), 2110 nM at PKN3 (setting [7]), 552 nM on PKN3 (setting [8]) and 73.9 nM on PKN3 (setting [10]).
On to `CNC(=O)c1ccccc1Nc1nc(Nc2ccc(N3CCOCC3)cc2)ncc1Cl` [GSK1576028A], for which the potency estimated from few doses was 142 nM at AAK1 (read-out: Kinobeads Drugmatrix - all: apparent Kd, AAK1) and over 1000 nM on ABL1 [4]. The CATDS at AAK1 turned out to be 0.02054; at ABL2 [1] it was 0; at ABL1 [3], 0; at ACAD11, 0; at ACOX1 it was 0.

As a reminder, the IC50 is the point on the concentration scale where inhibition reaches its midpoint.
